Consider 2 compounds from article PMC6018403 (Frontiers in Pharmacology, 2018).

Read-outs that look alike come from different tables or passages of the source.

Data set [1] in a line: Multi-component pharmacokinetic study of GQD, GQD-GC and single herb extracts in rats (plasma, LC/MS/MS). The note with it: for AUC(0-t) / Cmax / half-life / Tmax: male, Sprague-Dawley, rat; for AUC(0-t): po, read-out: AUClast; for Cmax: read-out: Cmax; for half-life: read-out: T1/2 (converted); for Tmax: read-out: Tmax. The format is in vivo, Sprague-Dawley rats. The method, boiled down: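 Male Sprague-Dawley rats (220–250 g, n = 10 per group) dosed orally with GQD, GQD-GC (1.0 g crude drug/mL) or single-herb decoctions. Plasma analytes quantified by LC/MS/MS in positive-ESI SRM mode. Cmax and Tmax taken from measured data, other parameters by non-compartmental or compartmental analysis; mean ± SD.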

Another data set can be described thus: in vivo. Details: species or system Sprague-Dawley rats. As to conditions: male, Sprague-Dawley, rat, po. As for the experimental part: For the PK study of berberine and glycyrrhizic acid, rats were randomly divided into four groups (n = 8 for each group) before oral administration. Two groups were respectively treated with 59.4 mg/kg of berberine and 84.8 mg/kg of glycyrrhizic acid; the third group was treated with 59.4 mg/kg of berberine and 2.36 g/kg of licorice water decoction (0.5 g/mL); and the last group received 59.4 mg/kg of berberine and 84.8 mg/kg of glycyrrhizic acid. The dosage of single compounds were calculated according to their contents in the administrated GQD extract. Sample collection were the same as described for GQD. […] The plasma samples were stored at −80°C. Samples were prepared for LC/MS/MS analysis as described in our previous study (Qiao et al., [2012]), as described in Supplemental Data. LC/MS/MS calibration and quantitation data were processed with Xcalibur 2.0.7 software (ThermoFisher). The maximal plasma concentrations (Cmax) and their time of occurrence (Tmax) were obtained directly from the measured data. Other pharmacokinetic parameters were calculated by non-compartment or compartment models using WinNonlin® software (v6.1, Pharsight). Unless otherwise stated, results were expressed as the mean ± SD. Statistical significance in differences of the means was determined by Student's t–test, with a significance level of P < 0.05.

The mark [2] stands for this setting: GC (Gan-Cao) group: rats, oral extract 2.36 g/kg, plasma.
Where [3] appears, read: plasma, 18.9 g/kg, GQD group: rats, oral GQD extract 18.9 g/kg, plasma.
Where [4] appears, read: GQD group: rats, oral GQD extract 18.9 g/kg, plasma.
Where [5] appears, read: GQD-GC group (GQD without Gan-Cao): rats, oral 16.5 g/kg, plasma.
Where [6] appears, read: HL (Huang-Lian) group: rats, oral extract 3.54 g/kg, plasma.

Consider `CC1(C)[C@@H](O[C@H]2O[C@H](C(=O)O)[C@@H](O)[C@H](O)[C@H]2O[C@@H]2O[C@H](C(=O)O)[C@@H](O)[C@H](O)[C@H]2O)CC[C@]2(C)[C@H]3C(=O)C=C4[C@@H]5C[C@@](C)(C(=O)O)CC[C@]5(C)CC[C@@]4(C)[C@]3(C)CC[C@@H]12` [Compound 36, glycyrrhizic acid], for which, in data set [1] (setting [2]), the AUClast was determined as 790.47 ± 362.54 ng·h/mL, the Cmax turned out to be 46.4 ± 0.89 ng/mL, the half-life was 4.08 ± 1.07 h and the Tmax was found to be 5.89 ± 0.98 h. In addition, the AUC(0-t) in data set [1] (setting [3]) worked out at 871 ± 571 ng·h/mL. Moreover, the AUC(0-t) in data set [1] (plasma, 18.9 g/kg, GQD group: rats, oral GQD 18.9 g/kg (1.5-fold of clinical dosage), plasma) was 871 ± 571 ng·h/mL. Also, in data set [1] (setting [4]), the Cmax was 55.6 ± 14.3 ng/mL, the half-life is 4.78 ± 9.98 h and the Tmax came to 6.9 ± 0.28 h. Further, in data set [1] (rats, oral), the “change of pharmacokinetics by GQD compared with Gan-Cao” value is given as “hardly changed”.
On to `COc1ccc2cc3[n+](cc2c1OC)CCc1cc2c(cc1-3)OCO2` [Compound 24, berberine], for which, in “in vivo”, the “increase of AUClast of berberine by GLY” value was “around 6 folds”. Besides, the Cmax came to 12.2 ± 4.85 ng/mL in “in vivo” (59.4 mg/kg), 28.2 ± 17.4 ng/mL in data set [1] (setting [4]), 32.3 ± 13.2 ng/mL in data set [1] (setting [5]) and 76.7 ± 27.9 ng/mL in data set [1] (setting [6]). The compound also displayed a Cmax of berberine in “in vivo” (59.4 mg/kg) of 117.12 ± 90.22 ng/mL. This compound also came in with a T1/2 of berberine in the data set “in vivo” (59.4 mg/kg) of 8.47 ± 2.90 h. Also, the half-life is 7.53 ± 1.65 h in “in vivo” (59.4 mg/kg, T1/2 of berberine); 11.4 ± 2.78 h in data set [1] (setting [4]); 7.09 ± 0.65 h in data set [1] (setting [5]); 9.3 ± 1.67 h in data set [1] (setting [6]). The AUC(0-t) was determined as 198 ± 76.9 ng·h/mL in data set [1] (plasma, 3.54 g/kg, HL (Huang-Lian) group: rats, oral extract 3.54 g/kg, plasma); 198 ± 76.9 ng·h/mL in data set [1] (plasma, 3.54 g/kg, Huang-Lian group: rats, oral 3.54 g/kg, plasma); 149 ± 70.8 ng·h/mL in data set [1] (plasma, 16.5 g/kg, GQD-GC group (GQD without Gan-Cao): rats, oral 16.5 g/kg, plasma); 149 ± 70.8 ng·h/mL in data set [1] (plasma, 16.5 g/kg, GQD−GC group: rats, oral 16.5 g/kg, plasma); 389 ± 187 ng·h/mL in data set [1] (setting [3]). For the same compound, the Tmax in data set [1] (setting [4]) is 0.39 ± 0.76 h; in data set [1] (setting [5]), 0.35 ± 0.23 h; in data set [1] (setting [6]), 0.29 ± 1.12 h. For the same compound, the “increase of AUClast in GQD group compared with the Huang-Lian group” value in data set [1] (rats, oral, GQD vs Huang-Lian) turned out to be 96.5%. The “improvement of plasma concentrations by GQD (vs Huang-Lian)” value in data set [1] (rats, oral, abstract) is on record as “at least 30%”.
